Converted amounts (≈) assume the structure as drawn. Where two headings read alike, the source gives them in different places.
Experiments:
Assay in all cases: Serum MIC, broth micro-dilution
Type in all cases: cell-based
[1] = system: Acinetobacter baumannii ATCC 17978; settings: Acinetobacter baumannii, ATCC17978
Summary of the method: (§1)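 Serum-shifted MIC: medium is a 1:1 v/v mix of cation-adjusted MH II broth and mouse serum. 10-point 2-fold dilution series, top 64, 4, 0.5 or 0.13 μg/mL depending on protocol. Inoculum OD600 0.0005 final; 35° C, 22 h.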

[2] = system: Escherichia coli strain ATCC 25922; settings: Escherichia coli, ATCC25922, read-out: E. coli 25922 Serum MIC
Summary of the method: as §1

[3] = system: Klebsiella pneumoniae ATCC 700603; settings: Klebsiella pneumoniae, ATCC700603
Summary of the method: as §1

[4] = system: Pseudomonas aeruginosa PA01; settings: Pseudomonas aeruginosa, PA01, read-out: P. aeruginosa 01 Serum MIC
Summary of the method: as §1

[5] = 50% v/v mouse serum in Mueller Hinton II cation adjusted Broth, 35° C., 22 hours, Table 4, read-out: A. baumanii 17978 Serum MIC
[6] = 50% v/v mouse serum in Mueller Hinton II cation adjusted Broth, 35° C., 22 hours, Table 5, read-out: Acinetobacter baumanii 17978 Serum MIC
[7] = 50% v/v mouse serum in Mueller Hinton II cation adjusted Broth, 35° C., 22 hours, Table 4
[8] = 50% v/v mouse serum in Mueller Hinton II cation adjusted Broth, 35° C., 22 hours, Table 4, read-out: K pneumoniae 700603 Serum MIC
[9] = 50% v/v mouse serum, compounds of Table 1, Table 7

Structure (SMILES) | MIC [1, 5] [µM] | MIC [1, 6] [µM] | MIC [2, 7] [µM] | MIC [3, 8] [µM] | MIC [4, 7] [µM] | MIC ([1]; 50% v/v mouse serum, compounds of Table 1, Table 7, read-out: A. baumanii 17978 Serum MIC) [µM] | MIC [2, 9] [µM] | MIC ([3]; 50% v/v mouse serum, compounds of Table 1, Table 7, read-out: K. pneumoniae 700603 Serum MIC) [µM] | MIC [4, 9] [µM]
Cc1nc(-c2ccc3c(c2)CCC3(C)C)nc(N)c1C(=O)N[C@@H](CCN)C(=O)N(C)[C@@H]1C(=O)N[C@@H](C)C(=O)N[C@H](C(=O)O)Cc2ccc(OC[C@H](O)CN)c(c2)-c2cc1cc(OC[C@H](O)CN)c2O [Example 47, (8S,11S,14S)-18-hydroxy-11-methyl-14-[methyl-[(2S)-4-amino-2-[[4-amino-2-(1,1-dimethylindan-5-yl)-6-methyl-pyrimidine-5-carbonyl]amino]-butanoyl]amino]-10,13-dioxo-3,17-bis[(2R)-3-amino-2-hydroxy-propoxy]-9,12-diazatricyclo-[13.3.1.12,6]icosa-1(18),2(20),3,5,15(19), 16-hexaene-8-carboxylic acid] | 16 (≈ 15.3 µg/mL) | 16 (≈ 15.3 µg/mL) | 0.25 (≈ 0.239 µg/mL) | 0.25 (≈ 0.239 µg/mL) | 16 (≈ 15.3 µg/mL) |  |  |  | 
COc1c(OC[C@H](O)CN)cc2cc1-c1cc(ccc1OC[C@H](O)CN)C[C@@H](C(=O)O)NC(=O)[C@H](C)NC(=O)[C@H]2N(C)C(=O)[C@H](CCN)NC(=O)c1cnc(-c2ccc(C3(C)CC3)cc2)nc1C [Example 74, (8S,11S,14S)-3,17-bis[(2R)-3-amino-2-hydroxy-propoxy]-14-[[(2S)-4-amino-2-[[4-methyl-2-[4-(1-methylcyclopropyl)-phenyl]pyrimidine-5-carbonyl]amino]-butanoyl]-methyl-amino]-18-methoxy-11-methyl-10,13-dioxo-9,12-diazatri-cyclo[13.3.1.12,6]icosa-1(18),2(20),3,5,15(19), 16-hexaene-8-carboxylic acid] | 32 (≈ 30.1 µg/mL) | 32 (≈ 30.1 µg/mL) | 0.5 (≈ 0.47 µg/mL) | 0.5 (≈ 0.47 µg/mL) | 64 (≈ 60.2 µg/mL) |  |  |  | 
C[C@@H]1NC(=O)[C@@H](N(C)C(=O)[C@H](CCN)NC(=O)c2c(N)cc(-c3ccc(C(C)(C)C)cc3)nc2Cl)c2cc(OC[C@H](O)CN)c(O)c(c2)-c2cc(ccc2OC[C@H](O)CN)C[C@@H](C(=O)O)NC1=O [Example 51, (8S,11S,14S)-18-hydroxy-11-methyl-14-[methyl-[(2S)-4-amino-2-[[4-amino-6-(4-tert-butylphenyl)-2-chloro-pyridine-3-carbonyl]amino]-butanoyl]amino]-10,13-dioxo-3,17-bis[(2R)-3-amino-2-hydroxy-propoxy]-9,12-diazatricyclo-[13.3.1.12,6]icosa-1(18),2(20),3,5,15(19), 16-hexaene-8-carboxylic acid] | 8 (≈ 7.7 µg/mL) | 8 (≈ 7.7 µg/mL) | 0.19 (≈ 0.183 µg/mL) | 0.13 (≈ 0.125 µg/mL) | 8 (≈ 7.7 µg/mL) |  |  |  | 
Cc1cc(C(C)(C)C)ccc1-c1nc(C)c(C(=O)N[C@@H](CNS(N)(=O)=O)C(=O)N(C)[C@@H]2C(=O)N[C@@H](C)C(=O)N[C@H](C(=O)O)Cc3ccc(OC[C@H](O)CN)c(c3)-c3cc2cc(OC[C@H](O)CN)c3O)c(N)n1 [Example 59, (8S,11S,14S)-14-[[(2S)-2-[[4-amino-2-(4-tert-butyl-2-methyl-phenyl)-6-methyl-pyrimidine-5-carbonyl]amino]-3-(sulfamoylamino)-propanoyl]-methyl-amino]-3,17-bis[(2R)-3-amino-2-hydroxy-propoxy]-18-hydroxy-11-methyl-10,13-dioxo-9,12-diazatricyclo-[13.3.1.12,6]icosa-1(18),2(20),3,5,15(19), 16-hexaene-8-carboxylic acid] | 16 (≈ 16.4 µg/mL) | 16 (≈ 16.4 µg/mL) | 1 (≈ 1.02 µg/mL) | 1 (≈ 1.02 µg/mL) | 4 (≈ 4.09 µg/mL) |  |  |  | 
COc1c(OC[C@H](O)CN)cc2cc1-c1cc(ccc1OC[C@H](O)CN)C[C@@H](C(=O)NCC#N)NC(=O)[C@H](C)NC(=O)[C@H]2N(C)C(=O)[C@H](CCN)NC(=O)c1c(C)nc(-c2ccc(C(C)(C)C)cc2)nc1C (racemic) [Example 586] |  |  |  |  |  | 2 (≈ 1.99 µg/mL) | 0.094 (≈ 0.0935 µg/mL) | 0.094 (≈ 0.0935 µg/mL) | 2 (≈ 1.99 µg/mL)
